Results from ChEMBL document CHEMBL4033774, “Class I HDAC Inhibitors: Potential New Epigenetic Therapeutics for Alcohol Use Disorder (AUD)” (J Med Chem, 2018).
pIC50: −log10 of the molar value. Blank lines part the entries; values can stand above or below the compound they belong to.

What was measured:
[1] = Drug uptake in baboon hippocampus after 20 mins by LC-MS/MS analysis; format: ADME, tissue-based; details: papio anubis, in vivo
[2] = Lipophilicity, log P of compound by LC-MS/MS analysis; format: physicochemical; details: octanol/water
[3] = biological target: T1, Protein deacetylase HDAC6 (Homo sapiens, UniProt Q9UBN7); test: Inhibition of full length 6His-tagged HDAC6 (unknown origin) expressed in baculovirus infected Sf9 insect cells incubated for 17 hrs in presence of FAM-labeled acetylated peptide substrate by fluorescence assay
T1 sequence (Q9UBN7 whole entry): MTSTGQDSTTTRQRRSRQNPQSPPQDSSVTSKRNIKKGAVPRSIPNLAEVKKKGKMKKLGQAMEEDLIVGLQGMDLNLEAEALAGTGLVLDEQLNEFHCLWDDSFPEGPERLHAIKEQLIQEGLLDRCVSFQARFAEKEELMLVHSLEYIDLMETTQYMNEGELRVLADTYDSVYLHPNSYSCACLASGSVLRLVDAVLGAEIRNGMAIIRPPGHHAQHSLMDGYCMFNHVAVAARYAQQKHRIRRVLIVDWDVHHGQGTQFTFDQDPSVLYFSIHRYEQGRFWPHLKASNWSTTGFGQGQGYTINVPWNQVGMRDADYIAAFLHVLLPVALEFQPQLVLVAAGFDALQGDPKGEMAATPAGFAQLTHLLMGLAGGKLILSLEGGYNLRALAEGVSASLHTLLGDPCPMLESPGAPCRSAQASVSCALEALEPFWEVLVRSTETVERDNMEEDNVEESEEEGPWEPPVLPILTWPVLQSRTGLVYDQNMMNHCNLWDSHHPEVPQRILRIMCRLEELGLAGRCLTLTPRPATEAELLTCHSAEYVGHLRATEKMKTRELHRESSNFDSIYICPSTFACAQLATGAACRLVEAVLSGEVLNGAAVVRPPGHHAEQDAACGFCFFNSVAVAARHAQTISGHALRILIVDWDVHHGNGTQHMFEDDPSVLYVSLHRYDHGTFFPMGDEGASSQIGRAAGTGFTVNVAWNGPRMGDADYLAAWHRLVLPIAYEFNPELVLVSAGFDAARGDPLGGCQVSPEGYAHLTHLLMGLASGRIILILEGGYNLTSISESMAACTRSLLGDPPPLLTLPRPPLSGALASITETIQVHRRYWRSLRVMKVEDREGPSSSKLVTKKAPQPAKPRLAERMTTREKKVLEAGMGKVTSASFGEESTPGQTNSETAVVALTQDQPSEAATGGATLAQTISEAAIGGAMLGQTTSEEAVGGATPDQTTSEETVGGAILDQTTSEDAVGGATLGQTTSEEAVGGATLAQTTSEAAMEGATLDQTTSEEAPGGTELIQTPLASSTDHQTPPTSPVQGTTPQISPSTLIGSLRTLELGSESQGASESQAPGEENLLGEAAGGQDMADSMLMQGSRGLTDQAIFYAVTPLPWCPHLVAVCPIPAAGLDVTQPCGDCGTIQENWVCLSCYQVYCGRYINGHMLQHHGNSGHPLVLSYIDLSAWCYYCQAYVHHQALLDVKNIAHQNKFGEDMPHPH

Histone deacetylase 8 = biological target: T2, Histone deacetylase 8 (Homo sapiens, UniProt Q9BY41); test: Inhibition of full length 6His-tagged HDAC8 (unknown origin) expressed in baculovirus infected Sf9 insect cells incubated for 17 hrs in presence of FAM-labeled acetylated peptide substrate by fluorescence assay
T2 sequence (Q9BY41 whole entry): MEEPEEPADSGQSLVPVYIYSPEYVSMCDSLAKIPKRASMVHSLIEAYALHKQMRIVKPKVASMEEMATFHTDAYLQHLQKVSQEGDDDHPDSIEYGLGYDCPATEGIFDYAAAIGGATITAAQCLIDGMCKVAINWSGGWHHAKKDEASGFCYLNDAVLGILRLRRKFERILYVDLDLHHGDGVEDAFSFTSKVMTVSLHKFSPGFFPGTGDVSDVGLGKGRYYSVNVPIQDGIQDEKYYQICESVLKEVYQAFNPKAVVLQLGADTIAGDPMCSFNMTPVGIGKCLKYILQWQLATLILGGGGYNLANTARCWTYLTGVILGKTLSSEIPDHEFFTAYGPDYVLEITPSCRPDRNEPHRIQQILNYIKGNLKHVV

[4] = biological target: T3, Polyamine deacetylase HDAC10 (Homo sapiens, UniProt Q969S8); test: Inhibition of C-terminal 6His-tagged HDAC10 (unknown origin) (632 to 669 residues) expressed in baculovirus infected Sf9 insect cells incubated for 17 hrs in presence of FAM-labeled acetylated peptide substrate by fluorescence assay
T3 sequence (Q969S8 whole entry): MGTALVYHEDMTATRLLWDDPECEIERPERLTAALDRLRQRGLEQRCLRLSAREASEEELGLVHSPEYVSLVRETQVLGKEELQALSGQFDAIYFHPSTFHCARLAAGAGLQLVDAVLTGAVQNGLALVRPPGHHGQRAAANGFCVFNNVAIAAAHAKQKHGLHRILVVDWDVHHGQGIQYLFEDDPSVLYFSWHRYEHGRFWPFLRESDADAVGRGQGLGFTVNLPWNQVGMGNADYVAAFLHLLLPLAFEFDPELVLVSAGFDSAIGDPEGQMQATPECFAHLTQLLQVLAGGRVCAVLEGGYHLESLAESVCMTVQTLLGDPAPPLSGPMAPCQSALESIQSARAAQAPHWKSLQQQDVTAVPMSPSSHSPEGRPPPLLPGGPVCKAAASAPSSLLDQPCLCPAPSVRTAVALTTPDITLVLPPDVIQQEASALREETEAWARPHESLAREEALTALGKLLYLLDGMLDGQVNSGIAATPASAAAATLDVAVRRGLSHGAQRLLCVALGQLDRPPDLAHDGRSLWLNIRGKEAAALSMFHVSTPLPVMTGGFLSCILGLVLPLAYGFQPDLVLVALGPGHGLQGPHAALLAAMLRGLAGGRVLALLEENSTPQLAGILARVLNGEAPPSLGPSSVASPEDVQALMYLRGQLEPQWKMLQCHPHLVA

Histone deacetylase 2 [5] = biological target: T4, Histone deacetylase 2 (Homo sapiens, UniProt Q92769); test: Inhibition of full length 6His-tagged HDAC2 (unknown origin) expressed in baculovirus infected Sf9 insect cells incubated for 17 hrs in presence of FAM-labeled acetylated peptide substrate by fluorescence assay
T4 sequence (Q92769 whole entry): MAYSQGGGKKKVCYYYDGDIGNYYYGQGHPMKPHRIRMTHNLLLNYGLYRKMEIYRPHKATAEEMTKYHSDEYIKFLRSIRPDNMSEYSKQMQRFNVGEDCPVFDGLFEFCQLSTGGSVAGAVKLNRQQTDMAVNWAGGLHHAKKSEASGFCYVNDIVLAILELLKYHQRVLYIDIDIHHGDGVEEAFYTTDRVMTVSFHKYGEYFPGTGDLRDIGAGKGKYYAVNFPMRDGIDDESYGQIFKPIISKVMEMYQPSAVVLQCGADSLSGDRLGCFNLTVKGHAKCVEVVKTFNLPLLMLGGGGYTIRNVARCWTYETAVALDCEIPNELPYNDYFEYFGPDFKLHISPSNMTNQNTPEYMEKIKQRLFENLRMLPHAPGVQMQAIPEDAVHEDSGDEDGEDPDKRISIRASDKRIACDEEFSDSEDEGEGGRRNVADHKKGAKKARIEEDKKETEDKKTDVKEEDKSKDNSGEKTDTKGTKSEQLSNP

Histone deacetylase 1 [6] = biological target: T5, Histone deacetylase 1 (Homo sapiens, UniProt Q13547); test: Inhibition of full length 6His-tagged HDAC1 (unknown origin) expressed in baculovirus infected Sf9 insect cells incubated for 17 hrs in presence of FAM-labeled acetylated peptide substrate by fluorescence assay
T5 sequence (Q13547 whole entry): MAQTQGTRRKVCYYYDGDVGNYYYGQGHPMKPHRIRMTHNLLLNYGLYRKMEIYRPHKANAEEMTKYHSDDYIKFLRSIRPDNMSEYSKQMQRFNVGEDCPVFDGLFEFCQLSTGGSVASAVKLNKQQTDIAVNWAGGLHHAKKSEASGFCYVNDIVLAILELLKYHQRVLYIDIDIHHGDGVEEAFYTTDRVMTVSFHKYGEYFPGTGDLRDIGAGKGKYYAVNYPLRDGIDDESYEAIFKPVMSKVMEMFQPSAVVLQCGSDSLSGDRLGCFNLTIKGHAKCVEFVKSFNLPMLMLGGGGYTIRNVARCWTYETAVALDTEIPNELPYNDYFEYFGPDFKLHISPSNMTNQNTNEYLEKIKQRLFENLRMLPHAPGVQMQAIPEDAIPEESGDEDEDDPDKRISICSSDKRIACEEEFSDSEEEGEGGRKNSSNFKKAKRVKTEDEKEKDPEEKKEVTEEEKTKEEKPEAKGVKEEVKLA

Histone deacetylase 11 = biological target: T6, Histone deacetylase 11 (Homo sapiens, UniProt Q96DB2); test: Inhibition of HDAC11 (unknown origin)
T6 sequence (Q96DB2 whole entry): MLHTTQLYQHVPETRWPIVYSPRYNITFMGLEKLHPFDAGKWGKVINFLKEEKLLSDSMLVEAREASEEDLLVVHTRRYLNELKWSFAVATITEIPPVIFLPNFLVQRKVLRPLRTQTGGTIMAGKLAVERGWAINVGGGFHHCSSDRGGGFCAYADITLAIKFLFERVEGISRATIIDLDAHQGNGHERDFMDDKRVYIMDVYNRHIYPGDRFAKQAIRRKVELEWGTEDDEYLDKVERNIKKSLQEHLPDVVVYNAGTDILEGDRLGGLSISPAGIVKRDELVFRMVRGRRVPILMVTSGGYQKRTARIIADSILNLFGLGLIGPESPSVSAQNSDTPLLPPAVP

Histone deacetylase 4 = Histone deacetylase 4 (Homo sapiens, UniProt P56524); test: Inhibition of HDAC4 (unknown origin)
Chain of Histone deacetylase 4 (P56524 whole entry): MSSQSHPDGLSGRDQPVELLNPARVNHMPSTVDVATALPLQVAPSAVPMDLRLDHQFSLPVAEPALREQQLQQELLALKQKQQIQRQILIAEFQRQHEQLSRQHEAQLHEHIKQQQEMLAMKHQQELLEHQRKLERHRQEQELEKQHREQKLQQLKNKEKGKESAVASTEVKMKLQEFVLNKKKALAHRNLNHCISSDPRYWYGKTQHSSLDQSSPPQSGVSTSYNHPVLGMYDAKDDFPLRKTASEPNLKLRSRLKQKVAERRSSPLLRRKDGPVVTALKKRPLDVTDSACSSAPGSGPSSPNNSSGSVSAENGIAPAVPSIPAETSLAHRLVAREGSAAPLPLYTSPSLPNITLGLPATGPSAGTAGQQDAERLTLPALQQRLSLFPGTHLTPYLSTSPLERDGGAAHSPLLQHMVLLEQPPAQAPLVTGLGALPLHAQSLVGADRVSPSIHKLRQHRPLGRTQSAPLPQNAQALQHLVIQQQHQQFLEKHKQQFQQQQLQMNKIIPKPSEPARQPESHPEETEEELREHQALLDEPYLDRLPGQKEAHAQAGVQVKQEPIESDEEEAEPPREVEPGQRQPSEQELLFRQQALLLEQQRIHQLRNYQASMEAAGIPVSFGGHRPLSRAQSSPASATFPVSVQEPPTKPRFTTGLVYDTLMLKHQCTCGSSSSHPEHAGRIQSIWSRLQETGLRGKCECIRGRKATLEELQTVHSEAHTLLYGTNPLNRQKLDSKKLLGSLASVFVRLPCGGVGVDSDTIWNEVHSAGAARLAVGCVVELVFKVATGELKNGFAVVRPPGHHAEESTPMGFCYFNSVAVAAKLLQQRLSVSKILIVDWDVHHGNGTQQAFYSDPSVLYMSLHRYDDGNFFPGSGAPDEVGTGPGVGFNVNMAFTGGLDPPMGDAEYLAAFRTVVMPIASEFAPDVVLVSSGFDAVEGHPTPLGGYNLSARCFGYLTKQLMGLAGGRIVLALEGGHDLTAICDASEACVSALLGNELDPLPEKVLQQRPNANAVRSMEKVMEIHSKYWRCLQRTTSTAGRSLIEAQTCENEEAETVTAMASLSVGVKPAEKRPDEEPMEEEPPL

Histone deacetylase 2 [7] = biological target: T4, Histone deacetylase 2; test: Inhibition of HDAC2 (unknown origin)
Histone deacetylase 3 = Histone deacetylase 3 (Homo sapiens, UniProt O15379); test: Inhibition of HDAC3 (unknown origin)
Chain of Histone deacetylase 3 (O15379 whole entry): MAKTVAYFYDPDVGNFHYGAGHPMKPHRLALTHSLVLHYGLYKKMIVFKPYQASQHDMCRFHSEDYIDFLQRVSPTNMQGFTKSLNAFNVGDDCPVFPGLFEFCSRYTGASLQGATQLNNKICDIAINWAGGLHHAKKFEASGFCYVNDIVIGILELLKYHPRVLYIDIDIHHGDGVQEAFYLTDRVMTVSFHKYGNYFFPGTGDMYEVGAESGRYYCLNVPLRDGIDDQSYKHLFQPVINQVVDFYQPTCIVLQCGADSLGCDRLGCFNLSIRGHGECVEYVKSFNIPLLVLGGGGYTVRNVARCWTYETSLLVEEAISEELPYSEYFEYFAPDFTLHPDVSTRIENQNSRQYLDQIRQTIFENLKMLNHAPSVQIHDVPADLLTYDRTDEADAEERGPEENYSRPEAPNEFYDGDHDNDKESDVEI

[8] = biological target: T1, Protein deacetylase HDAC6; test: Inhibition of HDAC6 (unknown origin)
[9] = biological target: T3, Polyamine deacetylase HDAC10; test: Inhibition of HDAC10 (unknown origin)
Histone deacetylase 1 [10] = biological target: T5, Histone deacetylase 1; test: Inhibition of HDAC1 (unknown origin)
Rattus norvegicus = test: Decrease in alcohol intake in rat assessed as ethanol intake at 2 mg/kg, ip administered daily during last 3 days of 10 day period of two-bottel choice paradigm (reference value: 7 g/kg); format: functional

Drug uptake [1]: 30%
logP [2]: 2.61
SMILES: COc1ccc(Cn2ccc3ccc(C(=O)NO)cc32)cc1

pIC50 [3]: < 4.52
pIC50 (Histone deacetylase 8): < 4.52
pIC50 [4]: < 4.52
pIC50 (Histone deacetylase 2 [5]): < 4.52
pIC50 (Histone deacetylase 1 [6]): < 4.52
SMILES: Nc1ccccc1NC(=O)CCCCCCC(=O)Nc1cccc(-c2cn(-c3ccccc3)nn2)c1

pIC50 (Histone deacetylase 11): < 4.70
pIC50 (Histone deacetylase 4): < 4.70
pIC50 (Histone deacetylase 2 [7]): < 4.70
pIC50 (Histone deacetylase 3): 5.52
pIC50 [8]: < 4.70
pIC50 [9]: < 4.70
pIC50 (Histone deacetylase 1 [10]): 5.52
SMILES: COc1ccc(/C=C/C(=O)NO)c(-c2ccc(-c3ccccc3)cc2)c1

SMILES: CC(/C=C/C(=O)NO)=C\[C@@H](C)C(=O)c1ccc(N(C)C)cc1 [TRICHOSTATIN]
Activity (Rattus norvegicus): <1 g/kg
